Source: patent US20220142967A1, “Methods and Compositions for the Treatment of Multiple Sclerosis” (SYMBIONYX PHARMACEUTICALS INC, priority 2018, published 2022)
Structures can show the parent of a compound that is named as a salt.

Columns and labels:
[1] = system: cultured human keratinocytes (KCs); test: Microarray genome-wide expression, IDMF vs. CTL, MS-associated genes; format: cell-based
Method: RNA sample processing and microarray hybridizations were performed using the Affymetrix Human Genome U133 Plus 2.0 array platform. DNA microarray samples evaluated included IDMF- and vehicle-treated KCs (n=2 replicates per group). Samples were normalized using the robust multichip average (RMA) algorithm. Identification of probe sets with detectable expression was performed using the MAS 5.0 method, which identifies probe sets with above-background expression based upon the Wilcoxon signed rank test. To limit redundancy in downstream analyses, a single probe set was chosen to represent each protein-coding human gene featured on the microarray platform. This representative was chosen as the probe set with highest expression for each protein-coding human gene. These probe sets were then additionally filtered to include only those with detectable expression in at least 1 of the 4 samples (P<0.05, Wilcoxon signed rank test). Overall, this yielded a total of 12330 protein-coding genes that were included in analyses, with each gene represented by a single representative probe set. Bayesian linear models and moderated t-statistics were then used to evaluate differential expression for each of the 12330 genes (IDMF vs. CTL treatment; R package: limma). To control the false discovery rate (FDR), raw p-values generated from linear model analyses were adjusted using the Benjamini-Hochberg method.
Genes associated with multiple sclerosis were identified based upon four established database sources: (1) the NHGRI-EBI genome-wide association (GWA) study catalogue, (2) the Disease Ontology (DO) database, (3) the DisGeNET database, and (4) the Medical Subject Heading (MESH) database. While there is some overlap between the various databases, the variation in identified genes from one database to the other reflects the fact that the science is still developing and has uncertainties. Nevertheless, as discussed below, efforts were undertaken to hone in on genes common to multiple databases. […]

[2] = system: human fetal astrocytes derived from cerebral cortex; test: Transcriptome analysis of astrocyte cultures treated with MMF, DRF, IDMF; format: cell-based; settings: 2.5 μM, 24 hours
Method: Experiments were performed using human fetal astrocytes derived from cerebral cortex (cat. no. 882A-05f; Cell Applications, Sant Diego, Calif.). Cells were grown to subconfluence in human astrocyte growth medium (cat. no. 820-500, Cell Applications). […] Test materials were added to subconfluent cultures at a concentration of 2.5 μM and cells were incubated for 24 hours.
RNA was extracted following the incubation period using the RNAeasy Mini Plus kit (Qiagen, Hilden, Germany) and robotic Qiacube Connect station (Qiagen). Samples were shipped on dry ice to the Thermo Fisher Microarray Research Services Laboratory (Santa Clara, Calif.) for transcriptome analysis. RNA quality analysis was performed upon sample receipt using the NanoDrop Lite (Thermo Fisher Scientific, Waltham, Mass.). All samples had 260/280 nm absorbance ratios higher than 1.90, consistent with high-purity RNA.
In follow-up to the study of Example, 1 above, genes associated with multiple sclerosis were identified based upon seven established database sources: (1) the NHGRI-EBI genome-wide association (GWA) study catalogue, (2) the Disease Ontology (DO) database, (3) the DisGeNET (curated) database, (4) the DisGeNET (BeFree), (5) MalaCards, (6) the Medical Subject Heading (MESH) database and the KEGG Database. The impact on gene expression of IDMF, MMF and DRF on the key overlapping MS-associated genes was assessed.
The specific data for four of the key NFR2 target genes associated with antioxidant and anti-inflammatory effects is presented in FIGS. 7(A) thru 7(D).
Both TNFAIP3 and NFKBIA encode inhibitory proteins that suppress the NF-KB pathway. Specifically, TNFAIP3 encodes a deubiquitinating enzyme previously linked to MS by genetic association studies: a TNFAIP3 protein abundance is increased in white matter and cortical lesion astrocytes from MS patient brains. Similarly, NFKBIA (IκBα) encodes an NF-KB inhibitor for which promoter polymorphisms have been associated with MS and abundance of this protein is prominent in macrophage nuclei of MS plaques undergoing active demyelination. ICAM1 encodes an endothelial adhesion molecule that promotes leucocyte extravasation and is associated with the initiation and progression of inflammation as well as the targeting of inflammation in the central nervous system (CNS). FIGS. 9(A), 9(B) and 9(C) show the specific data for these three genes.
Genetic variants of IFR has been associated with MS and some MS treatments such as glatiramer acetate block cytokine-stimulated IRF1 up-regulation. An assessment was undertaken to assess the relative impact of fumarate esters, namely MMF, DRF and IDMF on IFR motif enrichment.

[3] = genes common to at least two of four databases

For `COC(=O)/C=C/C(=O)O[C@H]1CO[C@H]2[C@@H]1OC[C@H]2OC(=O)/C=C/C(=O)OC` [IDMF, isosorbide di-(methyl fumarate)], the “average fold-change (IDMF/CTL) of MS-associated genes vs. randomly sampled gene sets” value ([1]; 76 MS-associated genes from the Disease Ontology (DO) database, P<0.001) was “significantly lower”, the “MS-associated genes most strongly decreased” value [1, 3] was “ICAM1, PLAT, and MMP9” and the “MS-associated genes most strongly increased” value [1, 3] was “POPDC3, MMP3, and DDAH1”. The IRF1 expression [2] was “marked downregulation”, the “effect on NRF2 target genes compared with MMF and DRF” value [2] was “much more pronounced effect” and the “effect on TNFAIP3, NFKBIA and ICAM1 expression” value [2] was “marked downregulation”. The “expression of heme oxygenase-1 (HMOX1)” value [2] was “marked increase in expression”.
